From patent US10696692B2, “Amido-benzyl sulfone and sulfoxide derivates” (Forma TM, LLC, priority 2012, dated 2020)

Key:
A2780 cells = assay: Assay 2: In-Vitro Cell Proliferation Assay (A2780 cells, SRB readout, 72 hours); type: cell-based; details: Homo sapiens, A2780, 72 h, A2780 cells, 72 hours, SRB; read-out: Cell Proliferation (IC50);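 also: viable cells counted via sulforhodamine B staining, absorbance at 570 nm, after 72 h exposure at 37 °C, DMSO 0.1% as control, media-only background subtracted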
NAMPT = NAMPT (Homo sapiens (Human), UniProt P43490); assay: Assay 1: Biochemical Inhibition Assay (NAMPT enzymatic reaction, NMN quantified by mass spectrometry); details: read-out: Biochemical (IC50);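 also: recombinant His-tagged human NAMPT preincubated with compound 15 min, then reacted 30 min at rt with 1 µM NAM, 100 µM PRPP, 2.5 mM ATP, NMN product read by RapidFire MS, normalized to L-Cystathionine internal standard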
Chain of NAMPT (P43490 whole entry): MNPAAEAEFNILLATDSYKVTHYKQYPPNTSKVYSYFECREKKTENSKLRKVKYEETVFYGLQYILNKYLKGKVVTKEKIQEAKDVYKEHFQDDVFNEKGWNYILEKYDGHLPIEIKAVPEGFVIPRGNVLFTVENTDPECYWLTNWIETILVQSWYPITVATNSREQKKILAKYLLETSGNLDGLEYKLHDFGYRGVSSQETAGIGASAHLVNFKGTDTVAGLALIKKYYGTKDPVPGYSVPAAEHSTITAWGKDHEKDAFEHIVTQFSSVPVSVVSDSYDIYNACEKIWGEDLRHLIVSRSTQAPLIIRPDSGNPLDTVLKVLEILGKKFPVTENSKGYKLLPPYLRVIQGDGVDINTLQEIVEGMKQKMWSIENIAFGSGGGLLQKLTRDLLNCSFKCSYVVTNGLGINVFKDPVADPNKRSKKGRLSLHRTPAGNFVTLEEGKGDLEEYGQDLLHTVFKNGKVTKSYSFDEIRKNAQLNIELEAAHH

Row | IC50 (A2780 cells) [nM] | IC50 (NAMPT) [nM] | Compound
1 | 2.17 | 8.45 | O=C(NCc1ccc(S(=O)(=O)N2CCC3(CCCO3)C2)cc1)c1ccc2nccn2c1 (stereo not drawn) [Example 219, N-[[4-(1-oxa-7-azaspiro[4.4]nonan-7-ylsulfonyl)phenyl]methyl] imidazo[1,2-a]pyridine-6-carboxamide]
2 | 16.8 | 25 | O=C(NCc1ccc(S(=O)(=O)N2CC3(CCOC3)C2)cc1)c1ccc2nccn2c1 [Example 220, N-[[4-(6-oxa-2-azaspiro[3.4]octan-2-ylsulfonyl)phenyl]methyl] imidazo[1,2-a]pyridine-6-carboxamide]
3 | 347 | 125 | O=C(NCc1ccc(S(=O)(=O)[C@H]2CCOC2)cc1)c1cc2cnccc2[nH]1 [Example 221, N-[[4-[(3S)-tetrahydrofuran-3-yl]sulfonylphenyl]methyl]-1H-pyrrolo[3,2-c]pyridine-2-carboxamide]
4 | 423 | 9.77 | O=C(NCc1ccc(S(=O)(=O)[C@H]2CCOC2)cc1)c1cnc2nccn2c1 [Example 222, N-[[4-[(3S)-tetrahydrofuran-3-yl]sulfonylphenyl]methyl] imidazo[1,2-a]pyrimidine-6-carboxamide]
5 | 105 | 64.2 | O=C(NCc1ccc(S(=O)(=O)[C@H]2CCOC2)cc1)c1ccc2nccn2c1 [Example 223, N-[[4-[(3S)-tetrahydrofuran-3-yl]sulfonylphenyl]methyl] imidazo[1,2-a]pyridine-6-carboxamide]
6 | 47.9 | 3.98 | O=C(NCc1ccc(S(=O)(=O)C2CCN(C3CCOCC3)CC2)cc1)c1cnc2nccn2c1 [Example 224, N-[[4-[(1-tetrahydropyran-4-yl-4-piperidyl)sulfonyl]phenyl]methyl]imidazo[1,2-a]pyrimidine-6-carboxamide]
7 | 320 | 118 | O=C(NCc1ccc(S(=O)(=O)[C@@H]2CCOC2)cc1)c1cc2cnccc2[nH]1 [Example 225, N-[[4-[(3R)-tetrahydrofuran-3-yl]sulfonylphenyl]methyl]-1H-pyrrolo[3,2-c]pyridine-2-carboxamide]
8 | 457 | 8.88 | O=C(NCc1ccc(S(=O)(=O)[C@@H]2CCOC2)cc1)c1cnc2nccn2c1 [Example 226, N-[[4-[(3R)-tetrahydrofuran-3-yl)sulfonylphenyl]methyl] imidazo[1,2-a]pyrimidine-6-carboxamide]
9 | 98.4 | 51.3 | O=C(NCc1ccc(S(=O)(=O)[C@@H]2CCOC2)cc1)c1ccc2nccn2c1 [Example 227, N-[[4-((3R)-tetrahydrofuran-3-yl]sulfonylphenyl]methyl] imidazo[1,2-a]pyridine-6-carboxamide]
10 | 151 | 207 | CC(=O)N1CCC(S(=O)(=O)c2ccc(CNC(=O)c3cnc4[nH]ncc4c3)cc2)CC1 [Example 228, N-[[4-(1-Acetylpiperidine-4-sulfonyl)phenyl]methyl]-1H-pyrazolo[3,4-b]pyridine-5-carboxamide]
11 | 527 | 5.12 | CC(=O)N1CCC(S(=O)(=O)c2ccc(CNC(=O)c3cnc4nccn4c3)cc2)CC1 [Example 229, N-[[4-[(1-acetyl-4-piperidyl)sulfonyl]phenyl]methyl]imidazo[1,2-a]pyrimidine-6-carboxamide]
12 | 243 | 73.8 | O=C(NCc1ccc(S(=O)(=O)[C@H]2CCOC2)cc1)c1cc2ccncc2o1 [Example 230, N-[[4-[(3S)-tetrahydrofuran-3-yl]sulfonylphenyl]methyl]furo [2,3-c]pyridine-2-carboxamide]
13 | 977 | 315 | O=C(NCc1ccc(S(=O)(=O)[C@H]2CCOC2)cc1)c1cnc2[nH]ncc2c1 [Example 231, N-[[4-[(3S)-tetrahydrofuran-3-yl]sulfonylphenyl]methyl]-1H-pyrazolo[3,4-b]pyridine-5-carboxamide]
14 | 445 | 175 | O=C(NCc1ccc(S(=O)(=O)[C@@H]2CCOC2)cc1)c1cc2ccncc2o1 [Example 232, N-[[4-[(3R)-tetrahydrofuran-3-yl]sulfonylphenyl]methyl]furo [2,3-c]pyridine-2-carboxamide]
15 | 1590 | 227 | O=C(NCc1ccc(S(=O)(=O)[C@@H]2CCOC2)cc1)c1cnc2[nH]ncc2c1 [Example 233, N-[[4-((3R)-tetrahydrofuran-3-yl]sulfonylphenyl]methyl]-1H-pyrazolo[3,4-b]pyridine-5-carboxamide]
16 | 130 | 90.6 | O=C(NCc1ccc(S(=O)(=O)C2CCNCC2)cc1)c1ccc2nccn2c1 [Example 234, N-[[4-(4-piperidylsulfonyl)phenyl]methyl]imidazo[1,2-a]pyridine-6-carboxamide]
17 | 36.3 | 16.4 | CC(C)(C)OC(=O)N1CCC2(CC1)CCN(S(=O)(=O)c1ccc(CNC(=O)c3ccc4nccn4c3)cc1)C2 [Example 235, tert-butyl 2-[4-[(imidazo[1,2-a]pyridine-6-carbonylamino)methyl]phenyl] sulfonyl-2,8-diazaspiro[4.5]decane-8-carboxylate]
18 | 38.8 | 109 | CC(C)(C)OC(=O)N1CCC2(CCCN2S(=O)(=O)c2ccc(CNC(=O)c3ccc4nccn4c3)cc2)C1 (stereo not drawn) [Example 237, tert-butyl 1-[4-[(imidazo[1,2-a]pyridine-6-carbonylamino)methyl]phenyl] sulfonyl-1,7-diazaspiro[4.4]nonane-7-carboxylate]
19 | 1.83 | 11.8 | CC(C)(C)OC(=O)N1CCCC2(C1)CN(S(=O)(=O)c1ccc(CNC(=O)c3ccc4nccn4c3)cc1)C2 [Example 238, tert-butyl 2-[4-[(imidazo[1,2-a]pyridine-6-carbonylamino)methyl]phenyl] sulfonyl-2,8-diazaspiro[3.5]nonane-8-carboxylate]
20 | 35.6 | 33.3 | O=C(NCc1ccc(S(=O)(=O)N2CC(F)(F)C2)cc1)c1ccc2nccn2c1 [Example 239, N-[[4-(3,3-difluoroazetidin-1-yl)sulfonylphenyl]methyl] imidazo[1,2-a]pyridine-6-carboxamide]
21 | 140 | 41 | O=C(NCc1ccc(S(=O)(=O)N2CCC2)cc1)c1ccc2nccn2c1 [Example 240, N-[[4-(azetidin-1-ylsulfonyl)phenyl]methyl] imidazo[1,2-a]pyridine-6-carboxamide]
22 | 4.14 | 14.4 | CC(C)(C)OC(=O)N1CCC2(CCN(S(=O)(=O)c3ccc(CNC(=O)c4ccc5nccn5c4)cc3)C2)C1 (stereo not drawn) [Example 241, tert-butyl 2-[4-[(imidazo[1,2-a]pyridine-6-carbonylamino)methyl]phenyl] sulfonyl-2,7-diazaspiro[4.4]nonane-7-carboxylate]
23 | 43.3 | 14.9 | CC(C)(C)OC(=O)N1CCCCC12CCN(S(=O)(=O)c1ccc(CNC(=O)c3ccc4nccn4c3)cc1)C2 (stereo not drawn) [Example 243, tert-butyl 2-[4-[(imidazo[1,2-a]pyridine-6-carbonylamino)methyl]phenyl] sulfonyl-2,6-diazaspiro[4.5]decane-6-carboxylate]

Row | Compound | IC50 (A2780 cells) [nM] | IC50 (NAMPT) [nM]
24 | O=C(NCc1ccc(S(=O)(=O)N2CC3(CCOCC3)C2)cc1)c1ccc2nccn2c1 [Example 218, N-[[4-(7-oxa-2-azaspiro[3.5]nonan-2-ylsulfonyl)phenyl]methyl] imidazo[1,2-a]pyridine-6-carboxamide] | 3.45 | 10.3
